In experiment [1] the target is T1, human kinase Mps-1 (Homo sapiens (Human), UniProt P33981). In words: biochemical.
In experiment [2] the target is T1, human kinase Mps-1. To be noted: read-out: Mps-1 IC50; N-terminally GST-tagged human full length recombinant Mps-1; 10 μM ATP; 1 μM biotinylated peptide substrate; 60 min at 22° C.

The structures appear in SMILES notation. Read-outs that look alike come from different tables or passages of the source.

T1 sequence (P33981 whole entry): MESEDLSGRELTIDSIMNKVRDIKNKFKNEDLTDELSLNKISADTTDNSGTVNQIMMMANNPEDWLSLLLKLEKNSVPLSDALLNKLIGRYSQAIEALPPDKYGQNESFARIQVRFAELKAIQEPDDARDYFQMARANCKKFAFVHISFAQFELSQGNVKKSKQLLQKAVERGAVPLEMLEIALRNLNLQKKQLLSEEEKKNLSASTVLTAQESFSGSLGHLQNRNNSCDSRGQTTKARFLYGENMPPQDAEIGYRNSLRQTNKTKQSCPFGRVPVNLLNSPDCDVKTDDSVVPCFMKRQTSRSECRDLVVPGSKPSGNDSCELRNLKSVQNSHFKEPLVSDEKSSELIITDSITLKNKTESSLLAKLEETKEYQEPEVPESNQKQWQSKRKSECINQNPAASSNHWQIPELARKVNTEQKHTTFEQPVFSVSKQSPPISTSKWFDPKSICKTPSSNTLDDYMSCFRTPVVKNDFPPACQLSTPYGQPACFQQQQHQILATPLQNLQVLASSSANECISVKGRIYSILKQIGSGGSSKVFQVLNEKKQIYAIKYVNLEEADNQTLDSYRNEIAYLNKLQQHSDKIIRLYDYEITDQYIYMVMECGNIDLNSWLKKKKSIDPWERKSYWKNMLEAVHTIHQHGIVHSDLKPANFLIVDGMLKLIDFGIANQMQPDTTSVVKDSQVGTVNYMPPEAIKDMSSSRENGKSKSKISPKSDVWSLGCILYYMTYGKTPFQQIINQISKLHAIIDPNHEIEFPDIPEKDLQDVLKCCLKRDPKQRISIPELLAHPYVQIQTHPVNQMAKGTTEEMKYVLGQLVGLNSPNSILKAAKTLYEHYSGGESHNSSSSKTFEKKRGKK

In general, IC50 refers to the point on the concentration scale where inhibition reaches its midpoint. In turn, `Cc1cc(-c2cnc3c(NCCC(F)(F)F)nc(C#CCO)cn23)ccc1C(=O)NC1C[C@@H]1F` (stereo in doubt) [Example 76, N-[rel(1S,2S)-2-fluorocyclopropyl]-4-{6-(3-hydroxyprop-1-yn-1-yl)-8-[(3,3,3-trifluoropropyl)amino]imidazo[1,2-a]pyrazin-3-yl}-2-methylbenzamide] showed an IC50 on human kinase Mps-1 [1] of 43 nM. `NCCCNc1nc(C#CCO)cn2c(-c3ccc(-c4cnc(C5CC5)[nH]4)cc3)cnc12` [Example 60, 3-{8-[(3-Aminopropyl)amino]-3-[4-(2-cyclopropyl-1H-imidazol-5-yl)phenyl]imidazo[1,2-a]pyrazin-6-yl}prop-2-yn-1-ol]: 230 nM corresponded to half-maximal inhibition at human kinase Mps-1 [1] (IC50). For the molecule `Cc1cc(-c2cnc3c(NCCC(F)(F)F)nc(C#CCO)cn23)ccc1C(=O)NC1(C#N)CC1` [Example 74, N-(1-cyanocyclopropyl)-4-{6-(3-hydroxyprop-1-yn-1-yl)-8-[(3,3,3-trifluoropropyl)amino]imidazo[1,2-a]pyrazin-3-yl}-2-methylbenzamide], at human kinase Mps-1 [2], the IC50 worked out at 98 nM.

For `COC1(NC(=O)c2ccc(-c3cnc4c(NCCC(F)(F)F)nc(C#CCO)cn34)cc2C)CC1` [Example 75, 4-{6-(3-hydroxyprop-1-yn-1-yl)-8-[(3,3,3-trifluoropropyl)amino]imidazo[1,2-a]pyrazin-3-yl}-N-(1-methoxycyclopropyl)-2-methylbenzamide], the IC50 at human kinase Mps-1 [2] amounted to 310 nM.

The values above are taken from patent US9199999B2, “Substituted imidazopyrazines” (Bayer Intellectual Property GmbH, priority 2010, dated 2015).
